Reference: patent US20060069132A1, “Azolecarboxamide herbicides” (priority 2004, published 2006)

Assays:
morningglory [1] = assay: Test B pre-/postemergence herbicide test; assay type: in vivo, Ipomoea coccinea; conditions: for Plant response rating, Morningglory: preemergence; for Morningglory plant response rating: postemergence, visual rating, scale 0 (no effect) to 100 (complete control)
Outline: (§1)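 Evaluation is visual, comparing treated with control plants on a scale where 0 means no effect and 100 means full control. Treatments were preemergence, or postemergence on seedlings 2–18 cm tall, and held 13–15 days in the greenhouse.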

giant foxtail [2] = assay: Test B pre-/postemergence herbicide test; assay type: in vivo, Setaria faberi; conditions: for Plant response rating, Foxtail, Giant: preemergence; for Foxtail, Giant plant response rating: postemergence, visual rating, scale 0 (no effect) to 100 (complete control)
Outline: (§2)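 Seeds were planted and treated preemergence with compounds formulated in a non-phytotoxic solvent mixture containing surfactant, while plants at the 1- to 4-leaf stage (2 to 18 cm) received postemergence sprays. Flooded paddy plants were grown to the 2-leaf stage. After 13 to 15 days in a greenhouse, injury was visually rated 0–100 against untreated controls.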

large crabgrass [3] = assay: Test A pre-/postemergence herbicide test; assay type: in vivo, Digitaria sanguinalis
Outline: (§3)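 Pre: seeded sandy loam, directed soil spray, compound in non-phytotoxic solvent + surfactant. Post: 1–2-leaf plants (2–10 cm), sprayed to runoff. Greenhouse ~10 d; visual injury vs untreated, 0–100 scale.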

wheat = assay: Test B postemergence herbicide test; assay type: in vivo, Triticum aestivum; parameters: key to Wheat plant response rating: 0 = no effect, 100 = complete control; conditions: postemergence, visual rating, scale 0 (no effect) to 100 (complete control)
Outline: (§4)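 Greenhouse test; postemergence application to plants at 1–4 leaves (2–18 cm); paddy species at 2 leaves; evaluated visually vs controls at 13–15 days; scale 0–100 (100 = complete control).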

morningglory [4] = assay: Test A pre-/postemergence herbicide test; assay type: in vivo, Ipomoea spp.
Outline: as §3

redroot pigweed = assay: Test A pre-/postemergence herbicide test; assay type: in vivo, Amaranthus retroflexus
Outline: as §3

velvetleaf [5] = assay: Test B pre-/postemergence herbicide test; assay type: in vivo, Abutilon theophrasti; conditions: for Plant response rating, Velvetleaf: preemergence; for Velvetleaf plant response rating: postemergence, visual rating, scale 0 (no effect) to 100 (complete control)
Outline: as §2

barnyardgrass [6] = assay: Test A pre-/postemergence herbicide test; assay type: in vivo, Echinochloa crus-galli
Outline: as §3

corn = assay: Test B pre-/postemergence herbicide test; assay type: in vivo, Zea mays; conditions: for Plant response rating, Corn: preemergence; for Corn plant response rating: postemergence, visual rating, scale 0 (no effect) to 100 (complete control)
Outline: as §2

wild oat = assay: Test B postemergence herbicide test; assay type: in vivo, Avena fatua; conditions: postemergence, visual rating, scale 0 (no effect) to 100 (complete control)
Outline: as §4

pigweed = assay: Test B pre-/postemergence herbicide test; assay type: in vivo, Amaranthus retroflexus; conditions: for Plant response rating, Pigweed: preemergence; for Pigweed plant response rating: postemergence, visual rating, scale 0 (no effect) to 100 (complete control)
Outline: as §2

blackgrass = assay: Test B postemergence herbicide test; assay type: in vivo, Alopecurus myosuroides; conditions: postemergence, visual rating, scale 0 (no effect) to 100 (complete control)
Outline: (§5)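 Each value is a visual 0–100 response rating taken against controls 13 to 15 days after treatment in the greenhouse. Plants received formulated chemical postemergence at the 1- to 4-leaf stage or, in flooded paddy, at the 2-leaf stage.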

large crabgrass [7] = assay: Test B pre-/postemergence herbicide test; assay type: in vivo, Digitaria sanguinalis; conditions: for Plant response rating, Crabgrass, Large: preemergence; for Crabgrass, Large plant response rating: postemergence, visual rating, scale 0 (no effect) to 100 (complete control)
Outline: as §2

ducksalad = assay: Test B flooded paddy test; assay type: in vivo, Heteranthera limosa; conditions: 1000 g ai/ha, visual rating, scale 0 to 100 (0 no effect, 100 complete control), 13 to 15 days
Outline: as §5

rice [8] = assay: Test B flooded paddy test; assay type: in vivo, Oryza sativa; conditions: 1000 g ai/ha, visual rating, scale 0 to 100 (0 no effect, 100 complete control), 13 to 15 days
Outline: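 Visual ratings, 0 (no effect) to 100 (complete control), made versus controls after 13–15 d greenhouse. Paddy plants treated at 2-leaf stage; postemergence plants at 1- to 4-leaf stage, 2–18 cm tall.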

barnyardgrass [9] = assay: Test B pre-/postemergence herbicide test; assay type: in vivo, Echinochloa crus-galli; conditions: for Plant response rating, Barnyardgrass: preemergence; for Barnyardgrass plant response rating: postemergence, visual rating, scale 0 (no effect) to 100 (complete control)
Outline: as §1

rice [10] = assay: Test B pre-/postemergence herbicide test; assay type: in vivo, Oryza sativa; conditions: 500 g ai/ha; visual rating 0-100, 0 no effect, 100 complete control; preemergence
Outline: as §2

velvetleaf [11] = assay: Test A pre-/postemergence herbicide test; assay type: in vivo, Abutilon theophrasti
Outline: as §3

giant foxtail [12] = assay: Test A pre-/postemergence herbicide test; assay type: in vivo, Setaria faberi
Outline: as §3

barnyardgrass [13] = assay: Test B flooded paddy test; assay type: in vivo, Echinochloa crus-galli; conditions: 1000 g ai/ha, visual rating, scale 0 to 100 (0 no effect, 100 complete control), 13 to 15 days
Outline: as §5

Surinam grass = assay: Test B pre-/postemergence herbicide test; assay type: in vivo, Urochloa decumbens; conditions: for Plant response rating, Surinam Grass: preemergence; for Surinam Grass plant response rating: postemergence, visual rating, scale 0 (no effect) to 100 (complete control)
Outline: as §2

[14] = tested on: small flower umbrella sedge; assay: Test B flooded paddy test; assay type: in vivo, Cyperus difformis; conditions: 1000 g ai/ha, visual rating, scale 0 to 100 (0 no effect, 100 complete control), 13 to 15 days
Outline: as §5

lambsquarters = assay: Test B pre-/postemergence herbicide test; assay type: in vivo, Chenopodium album; conditions: for Plant response rating, Lambsquarters: preemergence; for Lambsquarters plant response rating: postemergence, visual rating, scale 0 (no effect) to 100 (complete control)
Outline: as §2

cocklebur = assay: Test B pre-/postemergence herbicide test; assay type: in vivo, Xanthium strumarium; conditions: for Plant response rating, Cocklebur: preemergence; for Cocklebur plant response rating: postemergence, visual rating, scale 0 (no effect) to 100 (complete control)
Outline: as §1

[15] = 500 g ai/ha, visual rating 0-100, 0 no effect, 100 complete control
[16] = 125 g ai/ha, 0 to 100 scale, 0 is no effect, 100 is complete control
[17] = Postemergence, 250 g ai/ha, 0 to 100 scale, 0 no effect, 100 complete control
[18] = Postemergence, 1000 g ai/ha, 0 to 100 scale, 0 no effect, 100 complete control
[19] = Preemergence, 1000 g ai/ha, visual rating, 0 to 100 scale (0 no effect, 100 complete control)
[20] = preemergence, 250 g ai/ha, visual injury, 0 to 100 scale (0 no effect, 100 complete control)

CC(C)(C)c1cc(C(=O)Nc2cccc(SC(F)(F)F)c2)n(CCF)n1 [Compound 132]
15: Velvetleaf plant response rating (velvetleaf [11]; [20]) | Foxtail, Giant plant response rating (giant foxtail [12]; [17])
75: Pigweed plant response rating (redroot pigweed; [17])
35: Crabgrass, Large plant response rating (large crabgrass [3]; [19])
50: Plant response rating, Barnyardgrass (barnyardgrass [9]; [15]) | Barnyardgrass plant response rating (barnyardgrass [9]; 125 g ai/ha)
25: Plant response rating, Crabgrass, Large (large crabgrass [3]; [18]) | Foxtail, Giant plant response rating (giant foxtail [12]; [20])
80: Plant response rating, Foxtail, Giant (giant foxtail [2]; [15])
10: Plant response rating, Morningglory (morningglory [1]; [16]) | Wheat plant response rating (wheat; 125 g ai/ha) | Morningglory plant response rating (morningglory [4]; [17]) | Morningglory plant response rating (morningglory [4]; [19]) | Barnyardgrass plant response rating (barnyardgrass [6]; [19]) | Plant response rating, Corn (corn; [15]) | Plant response rating, Corn (corn; [16]) | Blackgrass plant response rating (blackgrass; 125 g ai/ha) | Ducksalad plant response rating (ducksalad) | Plant response rating, Barnyardgrass (barnyardgrass [9]; [16])
70: Morningglory plant response rating (morningglory [1]; 500 g ai/ha) | Plant response rating, Velvetleaf (velvetleaf [5]; [15]) | Pigweed plant response rating (pigweed; 125 g ai/ha) | Plant response rating, Surinam Grass (Surinam grass; [15])
5: Morningglory plant response rating (morningglory [4]; [20])
90: Pigweed plant response rating (pigweed; 500 g ai/ha) | Plant response rating, Crabgrass, Large (large crabgrass [7]; [16]) | Plant response rating, Lambsquarters (lambsquarters; [15]) | Cocklebur plant response rating (cocklebur; 125 g ai/ha) | Cocklebur plant response rating (cocklebur; 500 g ai/ha)
60: Morningglory plant response rating (morningglory [1]; 125 g ai/ha) | Velvetleaf plant response rating (velvetleaf [5]; 125 g ai/ha) | Velvetleaf plant response rating (velvetleaf [5]; 500 g ai/ha) | Barnyardgrass plant response rating (barnyardgrass [9]; 500 g ai/ha) | Surinam Grass plant response rating (Surinam grass; 500 g ai/ha) | Plant response rating, Lambsquarters (lambsquarters; [16])
65: Plant response rating, Pigweed (redroot pigweed; [18])
30: Foxtail, Giant plant response rating (giant foxtail [2]; 125 g ai/ha) | Plant response rating, Foxtail, Giant (giant foxtail [2]; [16]) | Pigweed plant response rating (redroot pigweed; [20]) | Plant response rating, Velvetleaf (velvetleaf [5]; [16]) | Plant response rating, Barnyardgrass (barnyardgrass [6]; [18]) | Crabgrass, Large plant response rating (large crabgrass [7]; 125 g ai/ha) | Plant response rating, Velvetleaf (velvetleaf [11]; [18]) | Barnyardgrass plant response rating (barnyardgrass [13])
100: Plant response rating, Pigweed (pigweed; [15]) | Plant response rating, Pigweed (pigweed; [16]) | Plant response rating, Crabgrass, Large (large crabgrass [7]; [15]) | Lambsquarters plant response rating (lambsquarters; 125 g ai/ha) | Lambsquarters plant response rating (lambsquarters; 500 g ai/ha)
40: Foxtail, Giant plant response rating (giant foxtail [2]; 500 g ai/ha) | Pigweed plant response rating (redroot pigweed; [19]) | Blackgrass plant response rating (blackgrass; 500 g ai/ha) | Crabgrass, Large plant response rating (large crabgrass [7]; 500 g ai/ha) | Foxtail, Giant plant response rating (giant foxtail [12]; [19]) | Surinam Grass plant response rating (Surinam grass; 125 g ai/ha) | Plant response rating, Surinam Grass (Surinam grass; [16]) | Sedge, Umbrella plant response rating [14]
20: Plant response rating, Morningglory (morningglory [1]; [15]) | Crabgrass, Large plant response rating (large crabgrass [3]; [17]) | Crabgrass, Large plant response rating (large crabgrass [3]; [20]) | Wheat plant response rating (wheat; 500 g ai/ha) | Plant response rating, Morningglory (morningglory [4]; [18]) | Barnyardgrass plant response rating (barnyardgrass [6]; [17]) | Corn plant response rating (corn; 125 g ai/ha) | Corn plant response rating (corn; 500 g ai/ha) | Oat, Wild plant response rating (wild oat; 125 g ai/ha) | Oat, Wild plant response rating (wild oat; 500 g ai/ha) | Velvetleaf plant response rating (velvetleaf [11]; [17]) | Velvetleaf plant response rating (velvetleaf [11]; [19]) | Plant response rating, Foxtail, Giant (giant foxtail [12]; [18])
0: Barnyardgrass plant response rating (barnyardgrass [6]; [20]) | Rice plant response rating (rice [8]) | Plant response rating, Rice (rice [10]) | Plant response rating, Cocklebur (cocklebur; [15]) | Plant response rating, Cocklebur (cocklebur; [16])
